pIC50: −log10 of the molar value.
Tests used:
VLA-4 (a4b1 integrin) [1] = biological target: T1, VLA-4 (a4b1 integrin) (Homo sapiens, UniProt P05556+P13612); assay: VLA-4 / VCAM-1 Screening Assay (solid-phase, dual antibody ELISA); details: Ramos cell-derived VLA-4 binding to immobilized recombinant human VCAM-1; 1 mM MnCl2, 2 hr at 37 °C
T1 construct: followed by 10 µl of Ramos cell-derived VLA-4; endogenous in cells; host or cells: Ramos cells (VLA-4 derived from them; method of extraction or purification not described)
Protocol: VLA-4 / VCAM-1 Screening Assay
VLA-4 antagonist activity, defined as ability to compete for binding to immobilized VCAM-1, was quantitated using a solid-phase, dual antibody ELISA. VLA-4 (a4b1 integrin) bound to VCAM-1 is detected by a complex of anti-integrin b1 antibody: HRP-conjugated anti-mouse IgG: chromogenic substrate (K-Blue). Initially, this entailed coating 96 well plates (Nunc Maxisorp) with recombinant human VCAM-1 (0.4 µg in 100 µl PBS), sealing each plate and then allowing the plates to stand at 4°C for ^~18 hr. […] On the day of assay, all plates are washed twice with VCAM Assay Buffer (200 µl/well of 50 mM Tris-HCl, 100 mM NaCl, 1 mM MnCl2, 0.05% Tween 20; pH 7.4). Test compounds are dissolved in 100% DMSO and then diluted 1:20 in VCAM Assay Buffer supplemented with 1mg/mL BSA (i.e., final DMSO = 5%). […] 100 µl per well of each dilution is added to the VCAM-coated plates, followed by 10 µl of Ramos cell-derived VLA-4. These plates are sequentially mixed on a platform shaker for 1 min, incubated for 2 hr at 37 °C, and then washed four times with 200 µl/well VCAM Assay Buffer. 100 µl of mouse anti-human integrin b1 antibody is added to each well (0.6 µg/mL in VCAM Assay Buffer + 1mg/mL BSA) and allowed to incubate for 1 hr at 37°C. At the conclusion of this incubation period, all plates are washed four times with VCAM Assay Buffer (200 µl/well). A corresponding second antibody, HRP-conjugated goat anti-mouse IgG (100 µl per well @ 1:800 dilution in VCAM Assay Buffer + 1mg/mL BSA), is then added to each well, followed by a 1 hr incubation at room temperature and concluded by three washes (200µl/well) with VCAM Assay Buffer. Color development is initiated by addition of 100 µl K-Blue per well (15 min incubation, room temp) and terminated by addition of 100 µl Red Stop Buffer per well. […] Results are calculated as % inhibition of total binding (i.e., VLA-4 + VCAM-1 in the absence of test compound).

VLA-4 (a4b1 integrin) [2] = biological target: T1, VLA-4 (a4b1 integrin); assay: Ramos (VLA-4) / VCAM-1 Cell-Based Screening Assay (Ramos-VCAM-1 cell adhesion assay); details: Calcein-AM labeled Ramos cells adhering to immobilized recombinant human VCAM-1; 45 min at room temperature
From the text: Ramos (VLA-4) / VCAM-1 Cell-Based Screening Assay Protocol
Calcein-AM was purchased from Molecular Probes Inc.
VLA-4 (a4b1 integrin) antagonist activity, defined as ability to compete with cell-surface VLA-4 for binding to immobilized VCAM-1, was quantitated using a Ramos-VCAM-1 cell adhesion assay. Ramos cells bearing cell-surface VLA-4, were labeled with a fluorescent dye (Calcein-AM) and allowed to bind VCAM-1 in the presence or absence of test compounds.
Initially, this entailed coating 96 well plates (Nunc Maxisorp) with recombinant human VCAM-1 (100 ng in 100 µl PBS), sealing each plate and allowing the plates to stand at 4°C for ~18 hr. The VCAM-coated plates were subsequently washed twice with 0.05% Tween-20 in PBS, and then blocked for 1hr (room temperature) with 200 µl of Blocking Buffer (1% BSA/0.02% thimerosal) to reduce non-specific binding. Following the incubation with Blocking Buffer, plates were inverted, blotted and the remaining buffer aspirated. Each plate was then washed with 300 µl PBS, inverted and the remaining PBS aspirated.
Test compounds were dissolved in 100% DMSO and then diluted 1:25 in VCAM Cell Adhesion Assay Buffer (4 mM CaCl2, 4 mM MgCl2 in 50 mM TRIS-HCl, pH 7.5) (final DMSO = 4%). […] 100 µl/well of each dilution was added to the VCAM-coated plates, followed by 100 µl of Ramos cells (200,000 cells/well in 1% BSA/PBS). […] Plates were inverted to remove non-adherent cells, blotted and 300 µl/well PBS added. Plates were again inverted, blotted and the remaining buffer gently aspirated. 100 µl Lysis Buffer (0.1% SDS in 50 mM TRIS-HCl, pH 8.5) was added to each well and agitated for 2 min on a rotary shaking platform.

T1 sequence (P13612 34-1032): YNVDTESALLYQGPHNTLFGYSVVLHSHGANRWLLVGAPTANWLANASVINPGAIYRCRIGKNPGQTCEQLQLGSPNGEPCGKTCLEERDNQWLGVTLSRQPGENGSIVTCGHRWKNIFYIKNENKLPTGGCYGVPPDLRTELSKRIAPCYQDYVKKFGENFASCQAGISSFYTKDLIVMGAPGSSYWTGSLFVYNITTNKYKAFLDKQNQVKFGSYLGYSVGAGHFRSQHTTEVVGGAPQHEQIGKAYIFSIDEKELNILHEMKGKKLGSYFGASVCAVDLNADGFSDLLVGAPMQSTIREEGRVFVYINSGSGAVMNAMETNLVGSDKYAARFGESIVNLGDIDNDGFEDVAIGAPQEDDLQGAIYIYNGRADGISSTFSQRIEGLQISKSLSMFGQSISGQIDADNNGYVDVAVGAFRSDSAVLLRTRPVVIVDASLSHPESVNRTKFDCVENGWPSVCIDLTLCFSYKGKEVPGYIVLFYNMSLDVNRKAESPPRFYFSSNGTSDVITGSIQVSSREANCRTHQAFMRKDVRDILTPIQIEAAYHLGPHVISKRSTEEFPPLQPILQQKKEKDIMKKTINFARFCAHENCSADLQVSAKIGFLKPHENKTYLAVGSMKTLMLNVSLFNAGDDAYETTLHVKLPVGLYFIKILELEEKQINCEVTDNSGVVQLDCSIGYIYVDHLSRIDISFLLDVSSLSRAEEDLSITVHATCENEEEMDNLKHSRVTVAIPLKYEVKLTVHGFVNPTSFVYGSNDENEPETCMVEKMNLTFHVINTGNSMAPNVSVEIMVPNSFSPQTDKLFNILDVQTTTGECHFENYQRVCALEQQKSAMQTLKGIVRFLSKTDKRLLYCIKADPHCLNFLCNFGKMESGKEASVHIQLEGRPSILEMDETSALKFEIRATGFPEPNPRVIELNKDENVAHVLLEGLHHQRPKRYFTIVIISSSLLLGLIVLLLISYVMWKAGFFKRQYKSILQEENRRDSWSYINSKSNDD
T1 sequence (P05556 21-798): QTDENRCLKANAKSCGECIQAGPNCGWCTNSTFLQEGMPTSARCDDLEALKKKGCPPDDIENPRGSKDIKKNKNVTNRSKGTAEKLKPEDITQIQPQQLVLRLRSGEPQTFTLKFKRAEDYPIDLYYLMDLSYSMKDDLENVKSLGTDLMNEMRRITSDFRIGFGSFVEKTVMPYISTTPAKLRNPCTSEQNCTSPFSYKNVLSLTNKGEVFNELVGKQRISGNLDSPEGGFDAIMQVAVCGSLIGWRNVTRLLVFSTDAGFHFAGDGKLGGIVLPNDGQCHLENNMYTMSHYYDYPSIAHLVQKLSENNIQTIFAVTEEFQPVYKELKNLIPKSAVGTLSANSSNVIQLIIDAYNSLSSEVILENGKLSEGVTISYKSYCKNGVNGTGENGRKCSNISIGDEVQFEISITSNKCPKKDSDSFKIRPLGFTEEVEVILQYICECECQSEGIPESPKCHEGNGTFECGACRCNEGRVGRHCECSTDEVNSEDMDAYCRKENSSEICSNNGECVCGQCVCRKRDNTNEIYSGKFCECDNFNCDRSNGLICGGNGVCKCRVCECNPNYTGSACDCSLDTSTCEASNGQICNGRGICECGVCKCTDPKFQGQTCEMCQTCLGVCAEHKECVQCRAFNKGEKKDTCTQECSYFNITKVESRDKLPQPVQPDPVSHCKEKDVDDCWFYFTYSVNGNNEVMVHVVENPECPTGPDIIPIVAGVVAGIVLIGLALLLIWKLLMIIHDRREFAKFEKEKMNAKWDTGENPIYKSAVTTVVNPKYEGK

Structure (SMILES)	pIC50 (VLA-4 (a4b1 integrin) [1])	pIC50 (VLA-4 (a4b1 integrin) [2])
O=C(NC(Cc1ccc(NC(=O)c2c(Cl)cccc2Cl)cc1)C(=O)O)c1ccccc1Cc1ccccc1 [Example 31, 4-[[(2,6-dichlorophenyl)carbonyl]amino]-N-[[(2-phenylmethyl)phenyl]carbonyl]-L-phenylalanine]	9.29	
COc1ccc(Br)c(C(=O)NC(Cc2ccc(NC(=O)c3c(C)ccnc3C)cc2)C(=O)O)c1 (stereo not drawn) [Example 108]	9.20	7.66
Cc1cc(CC(NC(=O)c2c(C)cccc2Cl)C(=O)O)ccc1NC(=O)CCc1cccc(O)c1 (stereo not drawn) [Example 120]	8.35	6.36
Cc1cc(CC(NC(=O)c2c(C)cccc2Cl)C(=O)O)ccc1NC(=O)Cc1cccc(O)c1 (stereo not drawn) [Example 121]	8.24	6.29
Cc1cc(CC(NC(=O)c2c(C)cccc2Cl)C(=O)O)ccc1NC(=O)c1c(Cl)cccc1Cl (stereo not drawn) [Example 123]	8.77	6.50
